# Source: US20190247353A1, “ACNE STRAIN-SELECTIVE ANTIBACTERIAL AGENT” (MOMOTANI JUNTENKAN CO., LTD., priority 2016, published 2019)
# Assays:
# Format in all cases: cell-based, Propionibacterium acnes
# [1] = system: HL053PA1 strain (RT4 strain) and HL110PA3 strain (RT6 strain); assay: Coculture test, coculturing strain suspension-1; parameters: dose or concentration left out as unconfirmed; details: pH 6.0, 2 days (FIG. 2a)
# Source text: (§1) Acne bacteria strains (HL053PA1 strain (RT4 strain), HL043PA1 strain (RT5 strain), and HL110PA3 strain (RT6 strain)) were respectively precultured in the same manner as in Example 1.
# (§2) The HL053PA1 strain (RT4 strain) and the HL110PA3 strain (RT6 strain) were suspended in a modified GAM broth liquid medium (pH 6.0) respectively at a concentration of 5.0×10^4 cfu/mL. Similarly, the HL043PA1 strain (RT5 strain) and the HL110PA3 strain (RT6 strain) were suspended respectively at a concentration of 5.0×10^4 cfu/mL. The suspensions were respectively designated as coculturing strain suspensions-1, and -2.
# (§3) […] Using a sample to which only 0.5% of DMSO was added as a control, it was confirmed that the influence of the solvent on the growth of each bacterium strain could be neglected.
# (§4) The test sample was statically cultured under anaerobic conditions at 37° C. for 2 days. After the culture, part of the culture solution was cultured under anaerobic conditions on a GAM broth agar plate (pH 7) for 3 days. The bacterium strains were identified based on the morphology (particularly size) of the emerged colonies, and the viable cell count (cfu/mL) of each bacterium strain was measured. From the measurement results, the proportion of each bacterium strain in the entire microbial cells was calculated (FIG. 2).
# [2] = system: HL043PA1 strain (RT5 strain) and HL110PA3 strain (RT6 strain); assay: Coculture test, coculturing strain suspension-2; parameters: dose or concentration left out as unconfirmed; details: pH 6.0, 2 days (FIG. 2b)
# Source text: as §1, §2, §3, §4
# [3] = system: HL110PA3 strain (RT6 strain); assay: Time course of viable cell count, HL110PA3 strain; details: 15 μg/mL, pH 6.0, anaerobic 37° C., 0 to 44 hours (FIG. 1c)
# Procedure: To each strain suspension (pH 6.0, 5.0×10^5 cfu/mL) of the acne bacterium strain (HL053PA1 strain (RT4 strain), HL043PA1 strain (RT5 strain), and HL110PA3 strain (RT6 strain)) prepared in the same manner as in Example 1, pentadecanoic acid (C15:0) was added to mix together (final concentration of a fatty acid of 15 μg/mL, and final concentration of solvent DMSO of 0.5%), and each the mixture was statically cultured at 37° C. in a nitrogen atmosphere (anaerobic condition). Using a sample to which only DMSO was added at 0.5% (final concentration) as a control, it was confirmed that the influence of the solvent on the growth of each strain could be neglected.
# The viable cell count in the culture solution was measured at 0, 2, 8, 18, 30 and 44 hours after the start of culturing. A viable cell count (cfu/mL) was calculated from the number of emerged colonies after culturing part of the culture solution on a GAM broth agar plate under anaerobic conditions for 3 days (FIG. 1).
compound,measurement,setting,value
"CCCCCCCCCCCCCCC(=O)O [Pentadecanoic acid (C15:0), Pentadecanoic acid]",Growth of the dominant strain in acne patients in coculture with RT6 strain,[1],suppressed selectively
same,Growth of the dominant strain in acne patients in coculture with RT6 strain,[2],suppressed selectively
same,"Growth of the HL110PA3 strain (RT6 strain), viable cell count time course",[3],not suppressed
